Data as given in PubChem BioAssay (NCI).
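Dose response: 5 concentrations. Exposure: 48 h. Format: 96-well plates. Endpoint: linear interpolation; highest concentration if not reached. GI50 is the concentration that inhibits growth by half. TGI marks complete inhibition of growth.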

How the values were obtained:
Assay in all cases: NCI-60 cell line screen, 48 h
SN12C renal = system: SN12C renal
ACHN renal = system: ACHN renal
NCI-H460 lung = system: NCI-H460 lung
NCI-H23 lung = system: NCI-H23 lung
EKVX NSCLC = system: EKVX NSCLC
KM12 colon = system: KM12 colon
UACC-257 melanoma = system: UACC-257 melanoma
U251 CNS = system: U251 CNS
DU-145 prostate = system: DU-145 prostate
SR leukemia = system: SR leukemia

Question: For `CCCCCCCCCCCCCC(=O)CSCCNC(=O)CCNC(=O)[C@@H](O)C(C)(C)COP(=O)(O)OP(=O)(O)OCC1OC(n2cnc3c(N)ncnc32)C(O)C1OP(=O)(O)O` (some centres undefined), which TGI (SN12C renal) is on record?
Answer: The TGI was 34.5 µM.

Question: And the TGI (ACHN renal)?
Answer: The TGI was 38 µM.

Question: What about the TGI (NCI-H460 lung) of the same molecule?
Answer: Its TGI is 79.7 µM.

Question: And the TGI (NCI-H23 lung)?
Answer: The TGI was 42 µM.

Question: And the TGI (EKVX NSCLC)?
Answer: The TGI was 41.3 µM.

Question: What about the TGI (KM12 colon) of the same molecule?
Answer: The TGI was 39 µM.

Question: What about the TGI (UACC-257 melanoma) of the same molecule?
Answer: Its TGI is 36.1 µM.

Question: What about the TGI (U251 CNS) of the same molecule?
Answer: Its TGI is 39.2 µM.

Question: With `Cc1c(C(N)=O)sc2c1c(=O)n(Cc1ccccc1)c1nnc(-c3ccc(Br)cc3)n21` as the molecule, how does the GI50 (SN12C renal) read?
Answer: Its GI50 is 2.36 µM.

Question: What about the TGI (SN12C renal) of the same molecule?
Answer: Its TGI is 14.1 µM.

Question: And the GI50 (ACHN renal)?
Answer: The GI50 was 1.46 µM.

Question: And the TGI (ACHN renal)?
Answer: The TGI was 12.3 µM.

Question: And the GI50 (NCI-H460 lung)?
Answer: Its GI50 is 0.813 µM.

Question: And the TGI (NCI-H460 lung)?
Answer: Its TGI is 6.55 µM.

Question: And the GI50 (DU-145 prostate)?
Answer: Its GI50 is 2.32 µM.

Question: And the TGI (DU-145 prostate)?
Answer: The TGI was 14.9 µM.

Question: What about the GI50 (NCI-H23 lung) of the same molecule?
Answer: The GI50 was 3.11 µM.

Question: What about the TGI (NCI-H23 lung) of the same molecule?
Answer: Its TGI is 15.2 µM.

Question: What about the GI50 (EKVX NSCLC) of the same molecule?
Answer: The GI50 was 3.11 µM.

Question: What about the TGI (EKVX NSCLC) of the same molecule?
Answer: The TGI was 21.6 µM.

Question: What about the GI50 (KM12 colon) of the same molecule?
Answer: The GI50 was 3.31 µM.

Question: And the TGI (KM12 colon)?
Answer: The TGI was 17.9 µM.

Question: And the GI50 (UACC-257 melanoma)?
Answer: The GI50 was 3.14 µM.

Question: What about the TGI (UACC-257 melanoma) of the same molecule?
Answer: Its TGI is 11.8 µM.

Question: And the GI50 (U251 CNS)?
Answer: The GI50 was 1.56 µM.

Question: What about the TGI (U251 CNS) of the same molecule?
Answer: The TGI was 13 µM.

Question: `CCOC(=O)/C(=C/c1ccc(N(CCC#N)CCC#N)cc1C)NC(=O)/C=C/c1ccccc1` was tested. Which TGI (SN12C renal) did it give?
Answer: Its TGI is greater than 100 µM.

Question: What about the TGI (ACHN renal) of the same molecule?
Answer: Its TGI is greater than 100 µM.

Question: What about the TGI (NCI-H460 lung) of the same molecule?
Answer: The TGI was greater than 100 µM.

Question: What about the TGI (NCI-H23 lung) of the same molecule?
Answer: Its TGI is greater than 100 µM.

Question: What about the TGI (EKVX NSCLC) of the same molecule?
Answer: The TGI was greater than 100 µM.

Question: What about the TGI (KM12 colon) of the same molecule?
Answer: The TGI was greater than 100 µM.

Question: And the TGI (UACC-257 melanoma)?
Answer: Its TGI is greater than 100 µM.

Question: What about the TGI (U251 CNS) of the same molecule?
Answer: The TGI was greater than 100 µM.

Question: For `COc1ccc(N(/C=C/C(=O)C(F)(F)F)CC(=O)c2ccc(Cl)cc2)cc1`, which GI50 (SN12C renal) is on record?
Answer: The GI50 was 11.2 µM.

Question: What about the TGI (SN12C renal) of the same molecule?
Answer: Its TGI is 23.3 µM.

Question: What about the GI50 (ACHN renal) of the same molecule?
Answer: Its GI50 is 14.5 µM.

Question: What about the TGI (ACHN renal) of the same molecule?
Answer: Its TGI is 27.6 µM.

Question: What about the GI50 (NCI-H460 lung) of the same molecule?
Answer: The GI50 was 13.4 µM.

Question: And the TGI (NCI-H460 lung)?
Answer: Its TGI is 32.8 µM.

Question: What about the GI50 (DU-145 prostate) of the same molecule?
Answer: The GI50 was 19.8 µM.

Question: And the TGI (DU-145 prostate)?
Answer: The TGI was 40.4 µM.

Question: And the GI50 (NCI-H23 lung)?
Answer: Its GI50 is 15.3 µM.

Question: And the TGI (NCI-H23 lung)?
Answer: The TGI was 35 µM.

Question: What about the GI50 (EKVX NSCLC) of the same molecule?
Answer: The GI50 was 25.3 µM.

Question: What about the TGI (EKVX NSCLC) of the same molecule?
Answer: The TGI was 63.3 µM.

Question: And the GI50 (KM12 colon)?
Answer: Its GI50 is 11.7 µM.

Question: What about the TGI (KM12 colon) of the same molecule?
Answer: Its TGI is 32.8 µM.

Question: And the GI50 (UACC-257 melanoma)?
Answer: The GI50 was 18.4 µM.

Question: What about the TGI (UACC-257 melanoma) of the same molecule?
Answer: Its TGI is 37.7 µM.

Question: What about the GI50 (U251 CNS) of the same molecule?
Answer: The GI50 was 13.7 µM.

Question: And the TGI (U251 CNS)?
Answer: The TGI was 26.7 µM.

Question: With `Cn1c(=O)c2[nH]cnc2n(CC(N)=O)c1=O` as the molecule, how does the TGI (SN12C renal) read?
Answer: Its TGI is greater than 100 µM.

Question: What about the TGI (ACHN renal) of the same molecule?
Answer: The TGI was greater than 100 µM.

Question: And the TGI (NCI-H460 lung)?
Answer: The TGI was greater than 100 µM.

Question: What about the TGI (NCI-H23 lung) of the same molecule?
Answer: Its TGI is greater than 100 µM.

Question: What about the TGI (EKVX NSCLC) of the same molecule?
Answer: Its TGI is greater than 100 µM.

Question: And the TGI (SR leukemia)?
Answer: Its TGI is greater than 100 µM.

Question: What about the TGI (KM12 colon) of the same molecule?
Answer: The TGI was greater than 100 µM.

Question: And the TGI (U251 CNS)?
Answer: The TGI was greater than 100 µM.

Question: For `COc1cc(-n2ccnc2)cc(OC)c1OC`, which GI50 (SN12C renal) is on record?
Answer: Its GI50 is 86 µM.

Question: What about the TGI (SN12C renal) of the same molecule?
Answer: The TGI was greater than 100 µM.

Question: And the GI50 (ACHN renal)?
Answer: Its GI50 is 34.6 µM.

Question: And the TGI (ACHN renal)?
Answer: Its TGI is greater than 100 µM.

Question: What about the GI50 (NCI-H460 lung) of the same molecule?
Answer: Its GI50 is 41.6 µM.

Question: What about the TGI (NCI-H460 lung) of the same molecule?
Answer: The TGI was greater than 100 µM.

Question: And the GI50 (DU-145 prostate)?
Answer: The GI50 was greater than 100 µM.

Question: What about the TGI (DU-145 prostate) of the same molecule?
Answer: The TGI was greater than 100 µM.

Question: What about the GI50 (NCI-H23 lung) of the same molecule?
Answer: Its GI50 is greater than 100 µM.

Question: And the TGI (NCI-H23 lung)?
Answer: The TGI was greater than 100 µM.

Question: And the GI50 (EKVX NSCLC)?
Answer: The GI50 was 84.4 µM.

Question: And the TGI (EKVX NSCLC)?
Answer: Its TGI is greater than 100 µM.

Question: What about the GI50 (KM12 colon) of the same molecule?
Answer: The GI50 was 43.2 µM.

Question: What about the TGI (KM12 colon) of the same molecule?
Answer: Its TGI is greater than 100 µM.

Question: What about the GI50 (UACC-257 melanoma) of the same molecule?
Answer: The GI50 was greater than 100 µM.

Question: What about the TGI (UACC-257 melanoma) of the same molecule?
Answer: Its TGI is greater than 100 µM.

Question: What about the GI50 (U251 CNS) of the same molecule?
Answer: Its GI50 is 58.6 µM.

Question: What about the TGI (U251 CNS) of the same molecule?
Answer: The TGI was greater than 100 µM.

Question: Which TGI (SN12C renal) does the source give for `C=C(C)C(=O)O[C@@H]1C/C(C)=C\[C@H](OC(C)=O)C[C@](C)(O)/C=C2/OC(=O)C(COC(C)=O)=C21` here?
Answer: The TGI was 2.85 µM.

Question: What about the TGI (ACHN renal) of the same molecule?
Answer: The TGI was 1.87 µM.

Question: And the TGI (NCI-H460 lung)?
Answer: The TGI was 2.35 µM.

Question: And the TGI (DU-145 prostate)?
Answer: The TGI was 7.13 µM.

Question: And the TGI (NCI-H23 lung)?
Answer: The TGI was 5.21 µM.

Question: And the TGI (EKVX NSCLC)?
Answer: Its TGI is 2.07 µM.

Question: What about the TGI (KM12 colon) of the same molecule?
Answer: The TGI was 23.5 µM.

Question: And the TGI (UACC-257 melanoma)?
Answer: Its TGI is 3.62 µM.

Question: Which GI50 (SN12C renal) does the source give for `COc1ccc(C(CC(=O)c2ccccc2)C(C(=O)c2ccccc2)C(c2ccc(OC)cc2)C2C(=O)NC(=S)NC2=O)cc1` (centres undefined) here?
Answer: Its GI50 is 12.8 µM.

Question: What about the TGI (SN12C renal) of the same molecule?
Answer: The TGI was 45.2 µM.

Question: What about the GI50 (ACHN renal) of the same molecule?
Answer: The GI50 was 12.3 µM.

Question: And the TGI (ACHN renal)?
Answer: The TGI was 50.9 µM.

Question: What about the GI50 (NCI-H460 lung) of the same molecule?
Answer: Its GI50 is 5.88 µM.

Question: And the TGI (NCI-H460 lung)?
Answer: The TGI was 50.7 µM.

Question: And the GI50 (DU-145 prostate)?
Answer: Its GI50 is 10.5 µM.

Question: And the TGI (DU-145 prostate)?
Answer: The TGI was 32 µM.

Question: And the GI50 (NCI-H23 lung)?
Answer: The GI50 was 14.3 µM.

Question: What about the TGI (NCI-H23 lung) of the same molecule?
Answer: Its TGI is 46.6 µM.

Question: And the GI50 (EKVX NSCLC)?
Answer: Its GI50 is 2.44 µM.

Question: And the TGI (EKVX NSCLC)?
Answer: Its TGI is 57.2 µM.

Question: What about the GI50 (KM12 colon) of the same molecule?
Answer: The GI50 was 8.12 µM.

Question: What about the TGI (KM12 colon) of the same molecule?
Answer: Its TGI is 39.8 µM.

Question: What about the GI50 (UACC-257 melanoma) of the same molecule?
Answer: Its GI50 is 13.8 µM.

Question: And the TGI (UACC-257 melanoma)?
Answer: The TGI was 52.7 µM.

Question: And the GI50 (U251 CNS)?
Answer: Its GI50 is 7.42 µM.

Question: And the TGI (U251 CNS)?
Answer: The TGI was 23.6 µM.
